Literature values, collected in US20080305171A1, “PYRROLOPYRAZINE, FORMULATIONS, METHODS OF MANUFACTURE, AND METHODS OF USE THERE” (priority 2007, published 2008).

Details: ethanol:phosphate buffer solution, increasing temperature and pH

CN1CCN(C(=O)OC2c3nccnc3C(=O)N2c2ccc(Cl)cn2)CC1 (racemic) [COMPOUND II, 6-(5-chloro-2-pyridyl)-5-[(4-methyl-1-piperazinyl)carbonyloxy]-7-oxo-6,7-dihydro-5H-pyrrolo[3,4-b]pyrazine]
chemical and isomeric stability in solution: both degrades and racemizes
